Reference: paper PMC11284788, “NN1213 – A Potent, Long-Acting, and Selective Analog of Human Amylin” (Journal of Medicinal Chemistry, 2024)
Read-outs that look alike come from different tables or passages of the source. Numbered stars: 1 amine (or outer) side, 2 acyl side, 3 side chain; on linkers, the order of the positions; unused ones are H or OH. Bridge positions count the residues as written; N and C are the ends. Peptide text beside a SMILES is read from it. * marks the point of attachment. C20 diacid = O=C(O)CCCCCCCCCCCCCCCCCCC(=O)*; γGlu = O=C(O)[C@H](CCC(=O)[*:2])N[*:1]

What was measured:
[1] = target: T1, rat AMY3R (Rattus norvegicus, UniProt P32214+Q9JJ73); assay: cAMP FlashPlate assay, rat AMY3R; format: cell-based; conditions: for EC50: cAMP (rat receptor assay); for ratio rCTR/rAMY3R: ratio of cAMP EC50 values
T1 construct: expressed in transfected cells; host or cells: BHK tk-ts 13, transient co-transfection (FuGENE 6)
T1 sequence (P32214 25-479 isoform P32214-2 limits assumed): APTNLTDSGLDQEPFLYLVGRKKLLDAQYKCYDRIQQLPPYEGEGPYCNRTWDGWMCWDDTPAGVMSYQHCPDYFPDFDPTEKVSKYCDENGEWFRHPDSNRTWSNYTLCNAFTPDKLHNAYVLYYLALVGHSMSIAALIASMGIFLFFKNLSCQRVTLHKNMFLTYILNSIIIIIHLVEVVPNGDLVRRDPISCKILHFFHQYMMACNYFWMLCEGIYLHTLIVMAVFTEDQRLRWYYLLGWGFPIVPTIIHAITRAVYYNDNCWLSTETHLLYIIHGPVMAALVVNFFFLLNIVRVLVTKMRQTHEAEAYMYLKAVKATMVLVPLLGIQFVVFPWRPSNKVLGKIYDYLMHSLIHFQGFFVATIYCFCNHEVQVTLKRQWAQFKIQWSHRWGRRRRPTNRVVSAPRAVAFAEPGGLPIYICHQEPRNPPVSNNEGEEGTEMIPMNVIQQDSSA
T1 sequence (Q9JJ73 23-147 partner): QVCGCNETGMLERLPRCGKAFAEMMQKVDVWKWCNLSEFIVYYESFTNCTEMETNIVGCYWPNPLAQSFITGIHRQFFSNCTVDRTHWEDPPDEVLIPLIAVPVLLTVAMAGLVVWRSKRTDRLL

[2] = target: T2, rCTR (Rattus norvegicus, UniProt P32214); assay: scintillation proximity binding assay, rCTR membranes
T2 construct: expressed in transfected cells; host or cells: BHK tk-ts 13, transient (FuGENE 6)
T2 sequence (P32214 25-479 isoform P32214-2 limits assumed): T1 sequence (P32214 25-479 isoform P32214-2 limits assumed)
Experimental: (§1) The apparent binding affinities were determined using a scintillation proximity assay with beads from PerkinElmer and cell membranes containing the AMY3R or CTRs. […] Membranes were harvested and membranes were prepared and kept at −80 °C until use. The assay was performed in a 384-well Optiplate (PerkinElmer). Membranes were mixed with scintillation proximity assay beads in a 1:1 ratio. […] Samples were analyzed on a TopCounter (Packard). The IC50 values were calculated using GraphPad Prism. See Supporting Information S7: SAR Screening Assay Methods (Binding Assays (Human and Rat)) for more information.
(§2) Binding Assays (Human and Rat). Brief descriptions of the methods used to determine binding affinities for SAR analysis are described below. Curves and IC50 values were plotted and calculated in GraphPad Prism using nonlinear regression (one site binding competition analysis), with pIC50 values […]
(§3) values were used to calculate the binding affinity ratios in order to express the selectivity of compounds for the AMY3R versus the CTR.
(§4) CTR Binding Assay. The binding assay was performed using scintillation proximity assay (SPA) beads (RPNQ0001) from PerkinElmer and cell membranes containing either the hCTR or rCTR. BHK […]
(§5) Membranes were prepared in the following way: the cells were rinsed with PBS and incubated with Versene for approximately 5 min before harvesting. The cells were flushed with PBS and the cell-suspension was centrifuged for 5 min at 1000 rpm. Cells were homogenized (Ultra Turrax) in a buffer […]
(§6) containing 20 mM Na-HEPES and 0.1 mM EDTA (pH 7.4, buffer 2). The resulting pellet was re-suspended in buffer 2 and protein concentration was measured (BCA protein assay, Pierce). The homogenate was kept cold during the whole procedure. The membranes were stored at –80 °C until […]
(§7) The binding assay was performed in a 384-well Optiplate (PerkinElmer) in a total volume of 40 μL.
(§8) Membranes were mixed with SPA beads in a 1:1 ratio. […]
(§9) mg/well. Test compounds were dissolved in DMSO and further diluted in assay buffer (50 mM HEPES, pH 7.4, 1 mM CaCl2, 5 mM MgCl2, 0.1% ovalbumin, and 0.02% Tween-20).
(§10) Calcitonin (NEX422 PerkinElmer) was dissolved in assay buffer and added to the Optiplate at a final […]
(§11) prior to centrifugation (1500 rpm, 10 min). Samples were analyzed on TopCounter (Packard).

[3] = target: T3, rAMY3R (Rattus norvegicus, UniProt P32214+Q9JJ73); assay: scintillation proximity binding assay, rAMY3R membranes; design: expressed in transfected cells; host or cells: BHK tk-ts 13, transient co-transfection (FuGENE 6); conditions: for ratio rCTR/rAMY3R: ratio of binding IC50 values
T3 sequence (P32214 25-479 isoform P32214-2 limits assumed): T1 sequence (P32214 25-479 isoform P32214-2 limits assumed)
T3 sequence (Q9JJ73 23-147 partner): T1 sequence (Q9JJ73 23-147 partner)

[4] = target: T4, hCTR (Homo sapiens, UniProt P30988); assay: scintillation proximity binding assay, hCTR membranes; design: expressed in transfected cells; host or cells: BHK tk-ts 13, transient (FuGENE 6); membranes for the SPA, whole cells for the species-specific assays
T4 sequence (P30988 25-474): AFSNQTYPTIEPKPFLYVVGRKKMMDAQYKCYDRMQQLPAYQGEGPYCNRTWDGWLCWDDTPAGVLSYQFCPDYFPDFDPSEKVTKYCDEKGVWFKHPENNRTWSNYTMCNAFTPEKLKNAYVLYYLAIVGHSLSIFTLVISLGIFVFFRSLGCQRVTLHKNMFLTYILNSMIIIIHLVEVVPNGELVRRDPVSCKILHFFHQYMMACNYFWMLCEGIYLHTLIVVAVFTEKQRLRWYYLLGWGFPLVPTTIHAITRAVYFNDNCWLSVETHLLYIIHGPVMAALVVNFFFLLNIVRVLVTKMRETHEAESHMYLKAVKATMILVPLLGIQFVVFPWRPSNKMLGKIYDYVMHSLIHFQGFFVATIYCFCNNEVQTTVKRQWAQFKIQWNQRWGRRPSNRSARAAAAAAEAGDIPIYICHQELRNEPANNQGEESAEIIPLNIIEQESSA
Experimental: as §1, §2, §3, §4, §5, §6, §7, §8, §9, §10, §11

[5] = Tables S12 and S14, read-out: rAMY3R pEC50 (converted)
[6] = transiently transfected BHK tk-ts 13 cells, FlashPlate, 30 min room temperature, 2% HSA, read-out: rAMY3R EC50
[7] = SPA binding assay, Tables S13 and S15
[8] = SPA binding assay, Tables S13 and S15, read-out: rCTR pIC50 (converted)
[9] = SPA, BHK cell membranes, 125I-Calcitonin 75 pM, 120 min 25 °C, read-out: rCTR IC50
[10] = SPA binding assay, Tables S13 and S15, read-out: rAMY3R pIC50 (converted)
[11] = SPA, BHK cell membranes, 125I-rat amylin, 120 min 25 °C, read-out: rAMY3R IC50
[12] = SPA binding assay, Tables S13 and S15, read-out: hCTR pIC50 (converted)
[13] = SPA, BHK cell membranes, 125I-Calcitonin 75 pM, 120 min 25 °C, read-out: hCTR IC50

| EC50 [1, 5] [nM] | EC50 [1, 6] [nM] | ratio rCTR/rAMY3R [1] | rCTR pIC50 [2, 7] | rAMY3R pIC50 [3, 7] | ratio rCTR/rAMY3R [3] | hCTR pIC50 [4, 7] | IC50 [2, 8] [nM] | IC50 [2, 9] [nM] | IC50 [3, 10] [nM] | IC50 [3, 11] [nM] | IC50 [4, 12] [nM] | IC50 [4, 13] [nM] | SMILES |
| --- | --- | --- | --- | --- | --- | --- | --- | --- | --- | --- | --- | --- | --- |
| 1.78 | 1.79 | 79 | 6.46 | 8.52 | 116 | 6.99 |  |  |  |  |  |  | CC[C@H](C)[C@H](NC(=O)[C@H](C)NC(=O)CNC(=O)[C@H](Cc1ccccc1)NC(=O)[C@H](CC(N)=O)NC(=O)[C@@H]1CCCN1C(=O)[C@H](CO)NC(=O)[C@H](CO)NC(=O)[C@H](Cc1c[nH]cn1)NC(=O)[C@H](CCCNC(=N)N)NC(=O)[C@H](CC(C)C)NC(=O)[C@H](Cc1ccccc1)NC(=O)[C@H](CC(N)=O)NC(=O)[C@H](C)NC(=O)[C@H](CC(C)C)NC(=O)[C@H](CCCNC(=N)N)NC(=O)[C@H](CCC(N)=O)NC(=O)[C@@H](NC(=O)[C@H](C)NC(=O)[C@@H]1CSSC[C@H](NC(=O)[C@H](CCCCN)NC(=O)COCCOCCNC(=O)COCCOCCNC(=O)CC[C@H](NC(=O)CCCCCCCCCCCCCCCCCCC(=O)O)C(=O)O)C(=O)N[C@@H](CC(N)=O)C(=O)N[C@@H]([C@@H](C)O)C(=O)N[C@@H](C)C(=O)N[C@@H]([C@@H](C)O)C(=O)N1)[C@@H](C)O)C(=O)N1CCC[C@H]1C(=O)N[C@@H](CO)C(=O)N[C@@H](CO)C(=O)N[C@H](C(=O)N[C@@H](CC(N)=O)C(=O)N[C@H](C(=O)NCC(=O)N[C@@H](CO)C(=O)N[C@@H](CC(N)=O)C(=O)N[C@H](C(=O)N[C@@H](Cc1ccc(O)cc1)C(N)=O)[C@@H](C)O)C(C)C)[C@@H](C)O [Peptide 10] |
| 1.29 | 1.29 | 13 |  |  | 44 |  | 51.3 | 51.4 | 1.17 | 1.17 | 12 | 11.9 | CC[C@H](C)[C@H](NC(=O)[C@H](C)NC(=O)CNC(=O)[C@H](Cc1ccccc1)NC(=O)[C@H](CC(N)=O)NC(=O)[C@@H]1CCCN1C(=O)[C@H](CO)NC(=O)[C@H](CO)NC(=O)[C@H](Cc1c[nH]cn1)NC(=O)[C@H](CCCNC(=N)N)NC(=O)[C@H](CC(C)C)NC(=O)[C@H](Cc1ccccc1)NC(=O)[C@H](CC(N)=O)NC(=O)[C@H](C)NC(=O)[C@H](CC(C)C)NC(=O)[C@H](CCCNC(=N)N)NC(=O)[C@H](CCC(N)=O)NC(=O)[C@@H](NC(=O)[C@H](C)NC(=O)[C@@H]1CSSC[C@H](NC(=O)[C@H](CCCCN)NC(=O)CC[C@H](NC(=O)CCCCCCCCCCCCCCCCCCC(=O)O)C(=O)O)C(=O)N[C@@H](CC(N)=O)C(=O)N[C@@H]([C@@H](C)O)C(=O)N[C@@H](C)C(=O)N[C@@H]([C@@H](C)O)C(=O)N1)[C@@H](C)O)C(=O)N1CCC[C@H]1C(=O)N[C@@H](CO)C(=O)N[C@@H](CO)C(=O)N[C@H](C(=O)N1CCC[C@H]1C(=O)N[C@H](C(=O)NCC(=O)N[C@@H](CO)C(=O)N[C@@H](CCC(=O)O)C(=O)N[C@H](C(=O)N[C@@H](Cc1ccc(O)cc1)C(N)=O)[C@@H](C)O)C(C)C)[C@@H](C)O [Peptide 11] ({C20 diacid-γGlu}-KCNTATCATQRLANFLRHSSPNFGAIPSSTPVGSETY-NH2; disulfide 2-7) |
| 0.603 | 0.599 | 50 | 7.05 | 8.77 | 52 | 7.13 |  |  |  |  |  |  | CC[C@H](C)[C@H](NC(=O)[C@H](C)NC(=O)CNC(=O)[C@H](Cc1ccccc1)NC(=O)[C@H](CC(N)=O)NC(=O)[C@@H]1CCCN1C(=O)[C@H](CO)NC(=O)[C@H](CO)NC(=O)[C@H](Cc1c[nH]cn1)NC(=O)[C@H](CCCNC(=N)N)NC(=O)[C@H](CC(C)C)NC(=O)[C@H](Cc1ccccc1)NC(=O)[C@H](CC(N)=O)NC(=O)[C@H](C)NC(=O)[C@H](CC(C)C)NC(=O)[C@H](CCCNC(=N)N)NC(=O)[C@H](CCC(N)=O)NC(=O)[C@@H](NC(=O)[C@H](C)NC(=O)[C@@H]1CSSC[C@H](NC(=O)[C@H](CCCCN)NC(=O)CC[C@H](NC(=O)CCCCCCCCCCCCCCCCCCC(=O)O)C(=O)O)C(=O)N[C@@H](CC(N)=O)C(=O)N[C@@H]([C@@H](C)O)C(=O)N[C@@H](C)C(=O)N[C@@H]([C@@H](C)O)C(=O)N1)[C@@H](C)O)C(=O)N1CCC[C@H]1C(=O)N[C@@H](CO)C(=O)N[C@@H](CO)C(=O)N[C@H](C(=O)N[C@@H](CC(N)=O)C(=O)N[C@H](C(=O)NCC(=O)N[C@@H](CO)C(=O)N[C@@H](CCCCN)C(=O)N[C@H](C(=O)N[C@@H](Cc1ccc(O)cc1)C(N)=O)[C@@H](C)O)C(C)C)[C@@H](C)O [Peptide 13] |
| 0.759 | 0.754 | 49 |  |  | 60 |  | 56.2 | 55.6 | 0.912 | 0.92 | 42.7 | 42.3 | CC[C@H](C)[C@H](NC(=O)[C@H](C)NC(=O)CNC(=O)[C@H](Cc1ccccc1)NC(=O)[C@H](CC(N)=O)NC(=O)[C@@H]1CCCN1C(=O)[C@H](CO)NC(=O)[C@H](CO)NC(=O)[C@H](Cc1c[nH]cn1)NC(=O)[C@H](CCCNC(=N)N)NC(=O)[C@H](CC(C)C)NC(=O)[C@H](Cc1ccccc1)NC(=O)[C@H](CC(N)=O)NC(=O)[C@H](C)NC(=O)[C@H](CC(C)C)NC(=O)[C@H](CCCNC(=N)N)NC(=O)[C@H](CCC(N)=O)NC(=O)[C@@H](NC(=O)[C@H](C)NC(=O)[C@@H]1CSSC[C@H](NC(=O)[C@@H](N)CCCCNC(=O)CC[C@H](NC(=O)CCCCCCCCCCCCCCCCCCC(=O)O)C(=O)O)C(=O)N[C@@H](CC(N)=O)C(=O)N[C@@H]([C@@H](C)O)C(=O)N[C@@H](C)C(=O)N[C@@H]([C@@H](C)O)C(=O)N1)[C@@H](C)O)C(=O)N1CCC[C@H]1C(=O)N[C@@H](CO)C(=O)N[C@@H](CO)C(=O)N[C@H](C(=O)N[C@@H](CC(N)=O)C(=O)N[C@H](C(=O)NCC(=O)N[C@@H](CO)C(=O)N[C@@H](CCCCN)C(=O)N[C@H](C(=O)N[C@@H](Cc1ccc(O)cc1)C(N)=O)[C@@H](C)O)C(C)C)[C@@H](C)O [Peptide 14] |
